Assay results taken from patent US12187715B2, “Small molecule activators of Tie-2” (EyePoint Pharmaceuticals, Inc., priority 2019, dated 2025).
“And” between values parts separate entries of the source, which are not always exact repeats. Identical values can stand only once. “Also recorded” adds a separate entry of the source. Marks after values point to notes of the source that are not given here.

Columns and labels:
[1] = Solubility testing in water by portionwise addition until saturation; assay type: physicochemical; details: for Amount (g) of compound added until saturation: added portionwise to 10 mL water; for Physical appearance: after portionwise addition to 10 mL water; for Filtration: filtration of the sample attempted after stirring overnight; for solubility at 4 weeks: pH 7, aqueous buffer, 50% dilution with water, adjusted to pH 7, T = 4 weeks; for solubility at 0 weeks: estimated from weight added; for solubility: Conclusions: suspensions stirred overnight, filtered and analyzed by HPLC, initial
Protocol: The solubility of compounds 2-4 was determined by portionwise addition of the compounds to water until saturation was obtained. Water (10 mL) was added to a 20-mL vial. About 100 mg of Compound 2 was added. The suspension was stirred at room temperature for 20 minutes until the contents became a clear solution. Compound 2 (˜100 mg portionwise) was added repeatedly with 30 min stirring time between the additions. Once a suspension was obtained after continuous stirring for 2 hours, the suspension was stirred overnight. The same procedure was used for the suspension preparations of Compound 3 and Compound 4.
After stirring overnight, filtration of each sample was attempted.
An aliquot of the suspension of Compound 2 was filtered through a 0.22 micron inline syringe filter.
About 1 mL of the aqueous solutions prepared above was diluted with water by 50%. The pH of the 50% diluted solutions was adjusted to pH 7 either by 0.1 N HCl or by 0.1 N NaOH. Solubility values for the three compounds in the solutions/suspensions before and after dilution are given in the in TABLE 3.
The solubility of Compounds 2-4 was determined by portionwise addition of the compounds to water until saturation was obtained. After stirring overnight, the suspensions were filtered and analyzed by HPLC. […] The solubility of Compound 3 was >200 mg/mL. The absolute solubility of Compound 3 was not determined because in the course of analysis, the solution of Compound 3 became too viscous to stir. […] The 50% diluted solutions of Compounds 2-4 were not viscous, and the compounds remained in solution for 4 weeks. […] All of the diluted solutions were easily syringable over 4 weeks' time.

phospho-Akt1 (pAkt) = assay: Phospho-Akt activation assay in human umbilical vein endothelial cells (Western blot); assay type: cell-based; details: for Relative potencies for activation of pAkt: HUVECs, 3, 10 and 30 μM
Protocol: The ability of the small molecule analogues as shown in EXAMPLES 1-3 to stimulate production of phospho-Akt1 (pAkt) was tested. Akt plays a critical role in controlling cell survival and apoptosis, and Akt phosphorylation is increased by the activation of Tie-2. Akt activation can be detected by an antibody that recognizes phosphorylation on the serine 473 residue on Akt.
HUVECs were seeded at 500,000 cells/mL in chemically-defined basal media, and supplemented with distinct growth factors (EGM-2). The following growth factors were required for survival and normal phenotypic expression of endothelial characteristics: fetal bovine serum 2%, hydrocortisone, human fibroblast growth factor-B, vascular endothelial growth factor, recombinant insulin growth factor R3, ascorbic acid, human epidermal growth factor, gentamicin sulfate, amphotericin B, and heparin. Cells were derived from one donor, cultivated in 10 cm dishes, and expanded upon reaching 90% confluence. After three passages, the cells were expanded and ready for testing.
The cells were seeded at 25,000 cells/mL in 6-well plates, and covered with 2 mL of complete media. The cells were fed on day 2 of culture with 2 mL of fresh EGM-2 media. 72 hours after plating, the cells were serum starved by rinsing twice with 2 mL of sterile phosphate buffered saline, and then placed at 37° C. for 3 hours in the presence of basal EGM-2 media (1.5 mL/well without growth factors). The serum starvation allowed the cells to become quiescent.
Compounds 2-4 were dissolved in distilled deionized water at the following concentrations: • Compound 2 (Molecular weight: 622.7): 31 mg/ml. • Compound 3 (Molecular weight: 622.7): 26 mg/ml. • Compound 4 (Molecular weight: 636.7): 32 mg/ml.
All compounds were stored at 4° C. […] Stock concentrations of the above molecules were made at a final working concentration of 1 mM. Specific microliter volumes of the working concentration were added to each 6 well plate at the following concentrations: 3, 10, and 30 micromolar (μM). Cells were treated for 30 minutes.
10× cell lysis buffer was diluted fresh with dH2O. The 1× cell lysis buffer contained: 20 mM Tris-HCl (pH 7.5), 150 mM NaCl, 1 mM Na2EDTA, 1 mM EGTA, 1% Triton, 2.5 mM sodium pyrophosphate, 1 mM β-glycerophosphate, 1 mM Na3VO4, 1 μg/ml leupeptin, and 1 mM PMSF. Immediately before use, 1 mM PMSF was prepared by diluting from a stock of 1 M PMSF made up in DMSO. In addition, a 1× concentration of a Halt protease & phosphatase inhibitor cocktail was included. At the end of the 30 minute treatment, the media was discarded from the cell culture wells by shaking out, and the remaining media was aspirated off the wells. Ice-cold lysis buffer was added at 140 μL/well, and the culture was placed on ice or in a cold room for 30 minutes while rocking. Cell lysates were collected using a cell scraper, placed in microfuge tubes, and stored at −80° C. The levels of protein were quantitated using a microtiter plate BCA protein assay.
2× Laemmli sample buffer was added in equal volume to the […] cell lysis buffer, which contained the lysed endothelial cells. The solution was heated at 100° C. for 5 minutes and then sonicated for 10 seconds. After sonication, the lysates were spun by centrifuge at 4° C. for 5 minutes at 17,000 rpm. 70-100 μg of protein calculated from BCA assay prior to addition of 2× Laemmli sample were added per well of an 8% polyacrylamide gel.
Electrophoresis was performed at 150 volts for approximately 90 minutes at room temperature with 1× Laemmli running buffer. The proteins from the gel were transferred to nitrocellulose at 100 volts for 45 minutes on ice.
The nitrocellulose membranes were removed quickly without drying and placed in phosphate buffered saline (pH 7.3) with 1% nonfat dried milk. The membranes were blocked in the milk solution while rocking for 2 hours at room temperature or overnight at 4° C. […]

[2] = Syringability testing (200 g weight on BD 1-mL syringe plunger, 27 G needle); assay type: physicochemical; details: for Syringability of the saturated solutions (in words): undiluted solutions
Protocol: Syringability testing was carried out by applying 200 g of weight on top of a BD 1-mL syringe plunger and measuring the time required to expel 1 mL of the saturated solutions through a 27 G needle. The times are recorded in TABLE 4. At T=0, 43 seconds were required to expel 1 mL of Compound 2, while 8 seconds were required to expel 1 mL of Compound 4. In contrast, approximately 5 minutes were required to expel only 0.1 mL of Compound 3, based on the very high viscosity of the solution relative to that of the other two.
Syringability test results of the 50% diluted solutions (TABLE 5) indicated a slight increase in viscosity (syringability test for water was 10 sec). All three solutions remained easily syringable.

[3] = water, thermodynamic from solid, Before dilution, T = 0
[4] = water, thermodynamic from solid
[5] = 50% diluted solution, T = 2 week
[6] = 50% diluted solution, T = 3 week
[7] = 50% diluted solution, T = 4 week
[8] = 50% diluted solution, T = 2 day
[9] = 50% diluted solution, T = 3 day
[10] = 50% diluted solution, T = 4 day
[11] = 50% diluted solution, T = 7 day
[12] = saturated (undiluted) solution, T = 0
[13] = saturated (undiluted) solution, T = 1 day
[14] = saturated (undiluted) solution, T = 2 day
[15] = saturated (undiluted) solution, T = 3 day

| Physical state of the preparation ([1]; 50% dilution, T = 4 weeks) | Physical state of the preparation ([1]; Before dilution, T = 0) | Amount (g) of compound added until saturation ([1]; room temperature) | Filtration [1] | solubility at 4 weeks ([1]; water) [mg/mL] | solubility at 0 weeks [1, 3] [mg/mL] | solubility [1, 4] [mg/mL] | Syringability: time to expel 1 mL [2, 5] [s] | Syringability: time to expel 1 mL [2, 6] [s] | Syringability: time to expel 1 mL [2, 7] [s] | Syringability: time to expel 1 mL [2, 8] [s] | Syringability: time to expel 1 mL [2, 9] [s] | Syringability: time to expel 1 mL [2, 10] [s] | Syringability: time to expel 1 mL [2, 11] [s] | Syringability: time to expel 1 mL [2, 12] [s] | Syringability: time to expel 1 mL [2, 13] [s] | Syringability: time to expel 1 mL [2, 14] [s] | Syringability: time to expel 1 mL [2, 15] [s] | SMILES | Physical appearance [1] | Relative potencies for activation of pAkt (phospho-Akt1 (pAkt)) | other results |
| --- | --- | --- | --- | --- | --- | --- | --- | --- | --- | --- | --- | --- | --- | --- | --- | --- | --- | --- | --- | --- | --- |
| (solution) | (solution) | 0.624 g | proceeded readily and Yes | 31 | 62 | ~58 | 13 | 13 | 14 | 12 | 14 | 15 | 12 | 8 | 12 | 15 | 12 | COC(=O)N(C)[C@@H](Cc1ccccc1)C(=O)N(C)[C@@H](Cc1ccc(NS(=O)(=O)[O-])cc1)c1csc(-c2cccs2)n1.[Na+] [Compound 4, sodium (4-{(S)-2-{(S)-2-[(methoxycarbonyl)(methyl)amino]-N-methyl-3-phenylpropanamido}-2-[2-(thiophen-2-yl)thiazol-4-yl]ethyl}phenyl)sulfamate] | formed a suspension; also recorded: Precipitate | Compound 2>Compound 4>Compound 3 | Solubility value in water ([1]; Before dilution, T = 5 weeks, room temperature): No change*; Syringability: time to expel 1 mL ([2]; saturated (undiluted) solution, T = 2 week): 13 s; Syringability: time to expel 1 mL ([2]; saturated (undiluted) solution, T = 3 week): 12 s; Syringability: time to expel 1 mL ([2]; saturated (undiluted) solution, T = 4 week): 13 s; Syringability: time to expel 1 mL ([2]; saturated (undiluted) solution, T = 4 day): 13 s; Syringability: time to expel 1 mL ([2]; saturated (undiluted) solution, T = 5 day): 14 s; Syringability: time to expel 1 mL ([2]; saturated (undiluted) solution, T = 6 day): 14 s; Syringability of the saturated solutions (in words) [2]: syringable |
| (solution) *** | (suspension) | 2.53 g and 2.528 g | difficult and Yes | ~125 | ~250 | ~200 | 14 | 11 | 11 | 10 | 15 | 18 | 15 | 43 | 52 | 65 | 58 | COC(=O)N(C)[C@@H](Cc1ccccc1)C(=O)N[C@@H](Cc1ccc(NS(=O)(=O)[O-])cc1)c1csc(-c2cccs2)n1.[Na+] [Compound 2, sodium (4-{(S)-2-{(S)-2-[(methoxycarbonyl)(methyl)amino]-3-phenylpropanamido}-2-[2-(thiophen-2-yl)thiazol-4-yl]ethyl}phenyl)sulfamate] | formed a suspension; also recorded: Precipitate | Compound 2>Compound 4>Compound 3 | Concentration in clear filtrate as share of the concentration of the initial, supersaturated solution ([1]; suspension filtered through 0.22 micron filter after 5 weeks): 25%; solubility at 5 weeks ([1]; water, thermodynamic from solid, Before dilution, T = 5 weeks, room temperature): 49.5 mg/mL; pAkt signal above control (phospho-Akt1 (pAkt); HUVECs, 30 μM, 30 minutes treatment): 300%; Levels of pAkt (in words) (phospho-Akt1 (pAkt); HUVECs, sets statement at 30 μM): Noticeable and dose-dependent; Syringability of the saturated solutions (in words) [2]: syringable |
